Holding throughout (format): cell-based
Assay [1] concerns Candida albicans SC 5314 biofilms. Kind of assay: Inhibition of mature biofilms (XTT). The conditions noted are these: biofilm grown 24 h, planktonic cells removed, antimicrobial for another 24 h at 37 °C, triplicate, at least twice. The protocol: (§1) The effects of the pelgipeptins on C. albicans biofilms were analyzed according to the protocol described by Pierce et al.. Briefly, 2 × 10^6 cells/mL of C. albicans SC 5314 were inoculated on 96-well polystyrene microplates. The inhibition of biofilm formation was also evaluated by adding antimicrobials (lipopeptides, fluconazole, or amphotericin B) at the same time as the yeast inoculum. Furthermore, the inhibition of early-phase biofilms was assessed after 4 hours of yeast growth by removing the planktonic cells and adding the antimicrobials (lipopeptides or amphotericin B). For the investigation of the effects of peptides on mature biofilms, the Candida cells were allowed to grow for 24 h when planktonic cells were removed, and the antimicrobials were added to the culture and incubated for another 24 h at 37 °C.
(§2) The biofilm viability was analyzed by the metabolic assay on the basis of the reduction of 2,3-bis-(2-methoxy-4-nitro-5-sulfophenyl)-2H-tetrazolium-5-carboxanilide (XTT) and absorbance reading at 490 nm. […] The sessile minimal inhibitory concentrations (SMICs) were also determined at 80% (SMIC80) and 50% (SIMIC50) decrease in absorbance at 490 nm in comparison with the control biofilms growing in the absence of the drug, as previously described.
Background: Formazan colour is commonly taken as a measure of viable cells.

For assay [2] the test system is unchanged. Kind of assay: Inhibition of initial biofilm formation (XTT). The conditions noted are these: antimicrobial added at same time as yeast inoculum (2 × 10^6 cells/mL), XTT reduction, A490, 80% decrease vs control biofilm, triplicate, at least twice. The protocol: as §1, §2
Assay [3] shares this test system. Kind of assay: Inhibition of early-phase biofilm (XTT). As to conditions: antimicrobial added after 4 hours of yeast growth, planktonic cells removed, A490, 80% decrease, triplicate, at least twice. On the procedure: as §1, §2
For assay [4], the system named is Cryptococcus neoformans H99. The assay is described as follows: microbe, parasite or virus in culture. As to conditions: broth microdilution CLSI M27-A4 modified, RPMI 1640 pH 7.0, 10^4 cells/mL, 37 °C, shaking 200 rpm, lowest concentration completely inhibiting visible growth, triplicates, at least thrice. On the procedure: (§3) The isolated pelgipeptin isoforms were tested against the reference clinical strains of Candida albicans SC 5314 (ATCC MYA-2876), Candida glabrata ATCC 90030, Cryptococcus neoformans H99 (ATCC 208821), and Paracoccidioides brasiliensis PB18, a Brazilian clinical isolate. All the isolates were obtained from the mycology collection of the University of Brasilia (Department of Cell Biology). Before each experiment, both Candida spp. strains were grown in Sabouraud's dextrose broth (Himedia) overnight at 30 °C/200 rpm. In addition, the C. neoformans cells were grown in the same conditions for 24 h. P. brasiliensis strains were also grown in GPY medium (2% glucose w/v, 1% peptone w/v, 0.5% yeast extract w/v, and 2% agar w/v), at 37 °C, for 5 days. The fungal cells were collected by centrifugation, washed thrice in phosphate buffered saline (PBS) (NaCl, 137 mM; KCl, 2.7 mM; Na2HPO4, 10 mM; KH2PO4, 2 mM), and inoculated in RPMI 1640 medium (Thermo-Fisher Scientific) supplemented with L-glutamine and buffered to pH 7.0 with 165 mM of 3-(N-morpholino) propanesulfonic acid.
(§4) The in vitro antifungal assays were performed according to the broth microdilution susceptibility test from the Clinical and Laboratory Standards Institute M27-A4 guidelines with modifications. Briefly, the twofold serial dilutions of each pelgipeptin were prepared in 96-well polystyrene microplates to a final volume of 50 µL. Fluconazole, an antifungal employed in the treatment of mycosis caused by Candida spp, Cryptococcus spp, and Paracoccidioides spp, was used as a control (Sigma-Aldrich). We also utilized polymyxin B (Sigma-Aldrich), another bacterial lipopeptide, in our assays due to some works that show its antifungal activity,[28]. The final concentrations of each lipopeptide and control ranged from 1 to 128 µg/mL, and the negative controls without peptide were used to assess fungal growth. Subsequently, 50 µL of the inoculum adjusted on RPMI-1640 medium was added to each well to a final concentration of 2 × 10^3 cells/mL for Candida spp. and 10^4 cells/mL for C. neoformans or P. brasiliensis strains. The microplates were incubated at 37 °C for 24, 48, or 72 h. In addition, the strains of C. neoformans were incubated with shaking at 200 rpm.
(§5) The MICs of the pelgipeptins against P. brasiliensis were determined using the microplate AlamarBlue Cell Viability Assay. This assay uses a resazurin-based solution to indicate cell viability, which was evaluated by fluorometric readings in a fluorescence plate reader with excitation at 550 nm and emission at 585 nm (SpectraMax® M plate reader). The experiments were performed in triplicates at least thrice on separate dates.

Assay [5] deals with Candida glabrata ATCC 90030. Kind of assay: microbe, parasite or virus in culture. The conditions noted are these: broth microdilution CLSI M27-A4 modified, RPMI 1640 pH 7.0, 2 × 10^3 cells/mL, 37 °C, complete inhibition of visible growth, triplicates, at least thrice. On the procedure: as §3, §4, §5
Background: Dilution methods test growth across graded concentrations, often in twofold steps.

Assay [6] deals with Paracoccidioides brasiliensis Pb18. Kind of assay: microbe, parasite or virus in culture. The protocol: as §3, §4, §5
For another assay, the system named is Candida albicans SC5314. The assay is described as follows: microbe, parasite or virus in culture. As to conditions: broth microdilution CLSI M27-A4 modified, RPMI 1640 pH 7.0, 2 × 10^3 cells/mL, 37 °C, complete inhibition of visible growth, triplicates, at least thrice. The protocol:
as §3, §4, §5

Values after ≈ are worked out from the molar mass of the structure shown. Where a SMILES comes first, the peptide text is derived from it. Bridges are numbered along the chain shown (N, C = ends). [ ]: non-standard residue; d: D form. The star is where a group is joined. X1 = CC[C@H](C)CCCCC(=O)*; Dab = NCC[C@H](N)C(=O)O Where only a bound is given, the exact number is not on record here.

In the case of `C[C@@H]1[C@H](O)[C@@H](C)/C=C/C=C/C=C/C=C/C=C/C=C/C=C/[C@H](O[C@@H]2O[C@H](C)[C@@H](O)[C@H](N)[C@@H]2O)C[C@@H]2O[C@](O)(C[C@@H](O)C[C@@H](O)[C@H](O)CC[C@@H](O)C[C@@H](O)CC(=O)O[C@H]1C)C[C@H](O)[C@H]2C(=O)O` [Amphotericin B], in assay [1] (A490, 50% decrease), the “Inhibition of mature biofilms SMIC50” value is 0.5 µg/mL. In addition, the “Inhibition of mature biofilms SMIC80” value in assay [1] (A490, 80% decrease) turned out to be 4 µg/mL. Further, the results for the “Inhibition of initial biofilm formation SMIC80” value in assay [2] and in assay [2] (listed as amphotericin B) were <0.5 µg/mL and “lower than 0.5 µg/mL”, respectively. Further, the “Inhibition of early-phase biofilm SMIC80” value in assay [3] is <0.5 µg/mL; in assay [3] (listed as amphotericin B), “lower than 0.5 µg/mL”.
As to `OC(Cn1cncn1)(Cn1cncn1)c1ccc(F)cc1F` [Fluconazole], the MIC in assay [4] (Cryptococcus neoformans, H99) was 2 mg/L (≈ 6.53 µM); in assay [5] (Nakaseomyces glabratus, ATCC90030), 32 mg/L (≈ 104 µM); in assay [6] (Paracoccidioides brasiliensis, PB18, pH 7, read-out: MIC Paracoccidioides brasiliensis Pb18), 2 mg/L (≈ 6.53 µM); in the assay with Candida albicans SC5314 (Candida albicans, SC5314), 16 mg/L (≈ 52.2 µM).
Take `CC[C@H](C)CCCCC(=O)N[C@@H](CCN)C(=O)N[C@H](C(=O)N[C@@H](CCN)C(=O)N[C@H]1CCNC(=O)[C@H]([C@@H](C)O)NC(=O)[C@H](CCN)NC(=O)[C@H](CCN)NC(=O)[C@H](CC(C)C)NC(=O)[C@@H](Cc2ccccc2)NC(=O)[C@H](CCN)NC1=O)[C@@H](C)O` [Polymyxin B, polymyxin B] (X1-[Dab]T[Dab][Dab][Dab][dF]L[Dab][Dab]T; lactam 4-C (inferred); N-terminus assumed): in assay [4], the “MIC Cryptococcus neoformans H99” value was 8 mg/L (≈ 6.65 µM). The “MIC Candida glabrata 90030” value in assay [5] is 512 mg/L (≈ 425 µM). Moreover, in assay [6] (broth microdilution, RPMI 1640 pH 7.0 (MOPS), 10^4 cells/mL, 37 °C, AlamarBlue fluorescence (ex 550/em 585 nm), triplicates, at least thrice), the “MIC Paracoccidioides brasiliensis Pb18” value was > 1024 mg/L. Besides, the “MIC Candida albicans SC5314” value against Candida albicans SC5314 came to 256 mg/L (≈ 213 µM).
